This is an account of results in ChEMBL document CHEMBL1201862, “PubChem BioAssay data set” (2004).

Type in all cases: functional
Assay [1] in a line: Luminescence Cell-Based Dose Confirmation HTS to Identify Activators of 5'UTR Stem-Loop Driven Alpha-Synuclein mRNA Translation in H4 Neuroglioblastoma Cells. [Related pubchem assays: 1829 (Project Summary), 1814 (Primary HTS)].
Assay [2] concerns the target T1, Short transient receptor potential channel 4 (Mus musculus, UniProt Q9QUQ5).
T1 sequence (Q9QUQ5 whole entry): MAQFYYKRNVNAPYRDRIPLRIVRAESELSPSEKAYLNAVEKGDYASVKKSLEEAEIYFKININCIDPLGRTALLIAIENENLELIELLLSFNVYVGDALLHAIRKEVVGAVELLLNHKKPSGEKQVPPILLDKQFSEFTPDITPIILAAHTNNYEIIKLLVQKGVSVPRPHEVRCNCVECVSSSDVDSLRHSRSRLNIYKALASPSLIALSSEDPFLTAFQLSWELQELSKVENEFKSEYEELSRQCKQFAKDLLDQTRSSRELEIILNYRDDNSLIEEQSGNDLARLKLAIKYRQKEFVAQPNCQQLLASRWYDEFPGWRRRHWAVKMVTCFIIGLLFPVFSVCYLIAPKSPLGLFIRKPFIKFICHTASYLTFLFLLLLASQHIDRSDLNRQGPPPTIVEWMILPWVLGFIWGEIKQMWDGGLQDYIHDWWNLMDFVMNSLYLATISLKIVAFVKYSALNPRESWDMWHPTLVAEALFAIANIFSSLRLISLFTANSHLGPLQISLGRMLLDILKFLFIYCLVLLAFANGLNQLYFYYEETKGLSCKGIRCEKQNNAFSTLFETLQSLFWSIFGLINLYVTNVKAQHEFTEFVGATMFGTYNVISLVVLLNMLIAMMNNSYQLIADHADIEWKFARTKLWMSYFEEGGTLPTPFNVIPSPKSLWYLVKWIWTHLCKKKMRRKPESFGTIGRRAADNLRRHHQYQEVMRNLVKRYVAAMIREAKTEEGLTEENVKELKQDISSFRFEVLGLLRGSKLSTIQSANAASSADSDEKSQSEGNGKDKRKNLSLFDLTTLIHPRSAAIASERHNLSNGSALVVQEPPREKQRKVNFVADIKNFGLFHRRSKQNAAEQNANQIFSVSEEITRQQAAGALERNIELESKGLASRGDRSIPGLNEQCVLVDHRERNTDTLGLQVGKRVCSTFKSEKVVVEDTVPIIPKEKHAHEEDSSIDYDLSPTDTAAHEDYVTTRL
In words: calcium entry via TRPC4 opening agents – cell-based, HEK293 TRPC4/mu-opioid, Fluo-4 calcium, dose response (AID 434937).

Assay [3] deals with Intestinal-type alkaline phosphatase (Mus musculus, UniProt P24822). As to the kind of experiment: PubChem AID 488874.
Sequence of Intestinal-type alkaline phosphatase (P24822 whole entry): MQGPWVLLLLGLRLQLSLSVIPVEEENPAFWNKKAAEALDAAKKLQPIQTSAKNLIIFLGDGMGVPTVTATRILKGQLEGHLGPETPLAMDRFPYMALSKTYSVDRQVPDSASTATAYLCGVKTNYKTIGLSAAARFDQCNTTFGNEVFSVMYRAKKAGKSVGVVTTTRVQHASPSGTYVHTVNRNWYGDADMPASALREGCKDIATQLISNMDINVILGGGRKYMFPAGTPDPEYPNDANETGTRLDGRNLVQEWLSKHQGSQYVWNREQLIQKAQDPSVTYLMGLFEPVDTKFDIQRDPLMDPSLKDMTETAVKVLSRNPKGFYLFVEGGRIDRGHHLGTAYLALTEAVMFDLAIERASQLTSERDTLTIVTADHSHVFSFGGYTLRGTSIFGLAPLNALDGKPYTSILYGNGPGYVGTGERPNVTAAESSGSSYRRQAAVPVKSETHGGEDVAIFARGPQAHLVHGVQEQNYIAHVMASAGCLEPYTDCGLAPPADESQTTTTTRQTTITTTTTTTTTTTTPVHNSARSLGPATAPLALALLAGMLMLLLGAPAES
For assay [4], the target named is T2, Sentrin-specific protease 7 (Homo sapiens, UniProt Q9BQF6).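 Also: Luminescence-based dose-response confirmation of ultra-high-throughput screening hits, measuring inhibition of SENP7.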
T2 sequence (Q9BQF6 whole entry): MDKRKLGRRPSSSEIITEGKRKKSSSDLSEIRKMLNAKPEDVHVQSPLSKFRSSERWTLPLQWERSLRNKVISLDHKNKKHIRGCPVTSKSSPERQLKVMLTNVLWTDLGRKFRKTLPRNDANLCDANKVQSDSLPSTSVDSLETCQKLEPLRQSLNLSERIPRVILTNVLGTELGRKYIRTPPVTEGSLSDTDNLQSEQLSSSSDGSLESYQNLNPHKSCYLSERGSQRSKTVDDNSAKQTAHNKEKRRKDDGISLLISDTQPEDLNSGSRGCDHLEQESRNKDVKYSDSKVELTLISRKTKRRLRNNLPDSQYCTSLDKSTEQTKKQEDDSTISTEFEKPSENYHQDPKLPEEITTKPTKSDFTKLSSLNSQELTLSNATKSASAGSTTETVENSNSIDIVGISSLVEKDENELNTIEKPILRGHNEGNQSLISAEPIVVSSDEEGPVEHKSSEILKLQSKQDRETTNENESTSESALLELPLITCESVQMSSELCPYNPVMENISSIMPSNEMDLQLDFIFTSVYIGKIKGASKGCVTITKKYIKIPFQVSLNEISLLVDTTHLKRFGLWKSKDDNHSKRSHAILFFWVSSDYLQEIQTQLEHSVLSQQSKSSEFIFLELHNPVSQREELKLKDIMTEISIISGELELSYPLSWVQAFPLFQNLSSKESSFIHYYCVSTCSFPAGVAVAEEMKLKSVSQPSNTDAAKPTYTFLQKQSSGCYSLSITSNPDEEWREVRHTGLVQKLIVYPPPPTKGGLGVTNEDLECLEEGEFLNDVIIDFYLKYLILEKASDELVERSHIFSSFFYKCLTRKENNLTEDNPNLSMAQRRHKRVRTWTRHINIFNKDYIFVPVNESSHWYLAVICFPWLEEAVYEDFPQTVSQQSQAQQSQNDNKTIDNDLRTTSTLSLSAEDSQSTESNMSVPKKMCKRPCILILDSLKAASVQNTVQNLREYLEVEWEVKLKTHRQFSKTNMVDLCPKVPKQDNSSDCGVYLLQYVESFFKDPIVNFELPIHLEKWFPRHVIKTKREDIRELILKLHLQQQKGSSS

A further assay deals with T3, Caspase-3 (Homo sapiens, UniProt P42574).
T3 sequence (P42574 whole entry): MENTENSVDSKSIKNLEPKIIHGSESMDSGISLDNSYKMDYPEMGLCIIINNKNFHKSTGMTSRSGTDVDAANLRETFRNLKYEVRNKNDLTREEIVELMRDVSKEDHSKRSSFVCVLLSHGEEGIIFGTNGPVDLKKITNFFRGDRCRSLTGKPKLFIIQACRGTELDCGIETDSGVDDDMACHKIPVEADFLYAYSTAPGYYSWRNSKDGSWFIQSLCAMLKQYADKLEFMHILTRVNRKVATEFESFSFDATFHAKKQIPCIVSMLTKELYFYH

In assay [5] the target is T4, Sentrin-specific protease 8 (Homo sapiens, UniProt Q96LD8).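 Also: luminescence read-out of SENP8 inhibition, dose-response confirmation following an ultra-high-throughput screen.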
T4 sequence (Q96LD8 whole entry): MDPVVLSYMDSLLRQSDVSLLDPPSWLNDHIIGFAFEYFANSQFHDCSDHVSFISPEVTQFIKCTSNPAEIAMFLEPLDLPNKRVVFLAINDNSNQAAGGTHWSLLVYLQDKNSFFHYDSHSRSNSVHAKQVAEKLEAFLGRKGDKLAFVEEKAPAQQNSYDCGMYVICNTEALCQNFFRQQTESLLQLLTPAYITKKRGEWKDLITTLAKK

Assay [6] concerns the target Dual specificity tyrosine-phosphorylation-regulated kinase 1A (Homo sapiens, UniProt Q13627).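 Also: measured against DYRK1A as one member of a broad kinome profiling panel.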
Assay [7] concerns the target Serine/threonine-protein kinase Nek2 (Homo sapiens, UniProt P51955).
Assay [8] concerns the target Serine/threonine-protein kinase PLK1 (Homo sapiens, UniProt P53350).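 Also: PLK1 measured as one member of a kinome-wide profiling panel.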
In assay [9] the target is Polyadenylate-binding protein 1 (Homo sapiens, UniProt P11940). In words: MLLE domain peptide-binding blockers, IC50 – biochemical, fluorescence polarization, FITC-PAM2 peptide, dose response (AID 602259). Conditions: read-out: IC50_Mean. In general terms: Fluorescence polarisation rises when a labelled molecule tumbles more slowly, as on binding a larger partner.
Sequence of Polyadenylate-binding protein 1 (P11940 whole entry, the tested form may be a part): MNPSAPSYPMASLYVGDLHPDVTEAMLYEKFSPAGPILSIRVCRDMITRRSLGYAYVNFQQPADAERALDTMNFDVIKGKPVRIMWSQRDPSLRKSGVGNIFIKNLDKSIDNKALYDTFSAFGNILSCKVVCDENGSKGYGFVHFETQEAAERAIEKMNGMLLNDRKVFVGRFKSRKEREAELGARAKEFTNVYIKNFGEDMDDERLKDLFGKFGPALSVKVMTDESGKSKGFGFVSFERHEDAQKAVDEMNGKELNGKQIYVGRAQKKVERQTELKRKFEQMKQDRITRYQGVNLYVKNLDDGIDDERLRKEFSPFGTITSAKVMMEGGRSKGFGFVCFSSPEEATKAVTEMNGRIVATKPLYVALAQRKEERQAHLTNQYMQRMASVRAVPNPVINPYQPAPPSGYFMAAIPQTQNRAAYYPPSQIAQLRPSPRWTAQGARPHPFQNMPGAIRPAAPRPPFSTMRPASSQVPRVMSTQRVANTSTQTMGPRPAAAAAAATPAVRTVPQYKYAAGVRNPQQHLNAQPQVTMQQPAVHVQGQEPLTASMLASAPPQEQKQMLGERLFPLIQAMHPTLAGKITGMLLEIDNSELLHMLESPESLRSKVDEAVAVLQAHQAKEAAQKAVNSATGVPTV

Structures can show the parent of a compound that is named as a salt. The source made the active and inactive calls.

Sequence of Serine/threonine-protein kinase PLK1 (P53350 whole entry, the tested form may be a part): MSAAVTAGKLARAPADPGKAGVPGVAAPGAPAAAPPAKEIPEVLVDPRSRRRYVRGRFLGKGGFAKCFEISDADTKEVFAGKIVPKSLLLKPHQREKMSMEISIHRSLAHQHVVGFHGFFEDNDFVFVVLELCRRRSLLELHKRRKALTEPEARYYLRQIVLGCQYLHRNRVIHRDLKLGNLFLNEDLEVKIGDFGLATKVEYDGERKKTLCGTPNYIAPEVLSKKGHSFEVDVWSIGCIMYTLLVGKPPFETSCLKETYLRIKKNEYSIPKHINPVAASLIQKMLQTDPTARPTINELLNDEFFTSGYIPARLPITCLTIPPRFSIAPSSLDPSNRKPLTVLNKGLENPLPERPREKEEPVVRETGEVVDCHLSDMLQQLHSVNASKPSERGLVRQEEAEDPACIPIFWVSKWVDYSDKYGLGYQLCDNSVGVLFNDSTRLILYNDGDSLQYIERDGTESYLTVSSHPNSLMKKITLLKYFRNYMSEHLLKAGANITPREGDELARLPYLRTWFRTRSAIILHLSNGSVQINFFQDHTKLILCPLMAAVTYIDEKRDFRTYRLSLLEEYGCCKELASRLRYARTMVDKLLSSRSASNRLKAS
Sequence of Serine/threonine-protein kinase Nek2 (P51955 whole entry): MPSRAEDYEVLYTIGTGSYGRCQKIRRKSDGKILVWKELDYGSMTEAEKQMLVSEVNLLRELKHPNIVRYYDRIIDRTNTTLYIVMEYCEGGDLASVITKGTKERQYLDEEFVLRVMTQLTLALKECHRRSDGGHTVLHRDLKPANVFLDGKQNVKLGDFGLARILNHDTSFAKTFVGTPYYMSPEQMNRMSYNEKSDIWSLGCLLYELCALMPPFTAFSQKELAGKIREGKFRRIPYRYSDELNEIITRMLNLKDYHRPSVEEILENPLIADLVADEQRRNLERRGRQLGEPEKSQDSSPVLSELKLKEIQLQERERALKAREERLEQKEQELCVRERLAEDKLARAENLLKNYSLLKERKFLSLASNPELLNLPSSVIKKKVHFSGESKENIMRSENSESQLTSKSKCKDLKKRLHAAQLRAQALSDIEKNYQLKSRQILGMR

As a reminder, the EC50 is the concentration that produces a half-maximal response. With `CCN1/C(=C\c2ccc3ccccc3[n+]2CC)Sc2cc(C)ccc21`, the EC50 in [1] is 15.7 µM (active); in [2], 4.73 µM (active). Besides, the IC50 in assay [3] was 20.8 µM (active).
For the compound `O=C(CCl)Oc1ccc2occ(C(=O)c3cccs3)c2c1`, the IC50 is 10.7 µM (active) in assay [4], 21.4 µM (active) on Caspase-3 and 38.2 µM (active) in [5].
One may read the Ki as a dissociation constant, usually derived from enzyme kinetics or from competition with a known ligand. For `CN1CCN(c2nc(C3=C(c4c[nH]c5ccccc45)C(=O)NC3=O)c3ccccc3n2)CC1` [SOTRASTAURIN], the Ki in assay [6] was > 3.98 µM (inactive); in assay [7], > 6.31 µM (inactive); in assay [8] it was 0.0631 µM (active).
With `CC[C@@H](CO)NC(=O)[C@@H]1C=C2c3cccc4c3c(cn4C)C[C@H]2N(C)C1` [METHYSERGIDE MALEATE], the EC50 in [2] is 1.5 µM (active). In addition, the IC50 in [9] is 32.2 µM (inactive).
With `CCC(C)n1c(NC(=O)c2ccccc2)c(C#N)c2nc3ccccc3nc21` (centres undefined), the IC50 was 2.82 µM (active) in assay [4], 13.3 µM (active) at Caspase-3 and 2.24 µM (active) in assay [5].
